Values of other authors in patent publication US20070244041A1, “Peptide Yy Analogues” (Reoscience A/S, priority 2004, published 2007).
No end group written: not given here.

Key:
[1] = test system: Y2 over Y1 receptors
[2] = test system: vagal motor neurons; conditions: applied onto vagal motor neurons

Substance	selectivity for Y2 over Y1 receptors [1]	vagal motor neurons activated [2]	vagal motor neurons with inhibited firing rate [2]
NPY3-36: truncated neuropeptide Y with high selectivity for Y2 over Y1 receptors	high selectivity	–	–
PYY13-36: truncated PYY, a Y2 selective agonist (SPEELNRYYASLRHYLNLVTRQRY; ends and bridges not checked; UniProt P10082 41-64, looked up, fragment)	–	approximately 5%	approximately 50%
